# Results reported in patent US20220125764A1, “PHARMACEUTICAL COMPOSITION COMPRISING BENZIMIDAZOLE DERIVATIVE COMPOUND” (HK INNO.N CORPORATION, priority 2019, published 2022).
# Key:
# [1] = test system: erosive gastroesophageal reflux disease; test: Double-blinded, randomized, active-controlled maintenance therapy trial in subjects with treated erosive gastroesophageal reflux disease (Example 2); assay type: in vivo, human; settings: for subjects with erosion observed by upper gastrointestinal endoscopy: test group (tegoprazan 25 mg, at least 17 subjects) and control group (lansoprazole 15 mg) pooled, total 37 subjects; for symptom evaluation: symptoms of heartburn and gastric acid reflux while taking the drug: all the subjects of the group, once a day for four weeks, tegoprazan 25 mg, lansoprazole 15 mg
# Description: A double-blinded, randomized and active controlled study was designed to identify an effect of 25 mg of tegoprazan on maintenance therapy for gastroesophageal reflux disease.
# (2) a person who is diagnosed with erosive gastroesophageal reflux disease (LA grade A-D) through upper gastrointestinal endoscopy within 12 weeks based on random group allocation (visit 2);
# (3) a person who is identified as having erosive gastroesophageal reflux disease treated through upper gastrointestinal endoscopy within seven days based on random group allocation (visit 2) (a person who is identified the cure of erosion after administration of a standard dose of therapeutic agents for erosive gastroesophageal reflux disease (PPI, P-CAB, etc.) for 4-8 weeks due to a typical symptom of gastroesophageal reflux disease and erosive gastroesophageal reflux disease);
# The clinical trial was performed in a double-blinded, randomized, active-controlled and multi-center clinical trial manner, and the clinical trial may be schematized as shown in FIG. 1.
# The subjects were classified using stratified block randomization based on LA grades identified by upper gastrointestinal endoscopy performed within 12 weeks before the random allocation on visit (visit 2). Each group was administered with the drug for 24 weeks.
# As identified in the table above, the test group was orally dosed with 25 mg of tegoprazan tablet (Preparation Example 1)/lansoprazole 15 mg placebo (Preparation Example 4), and the control group was orally dosed with 25 mg of tegoprazan placebo (Preparation Example 2)/lansoprazole 15 mg capsule (Preparation Example 3).
# The subjects randomly allocated to each group took the prescribed clinical trial drug once a day at a regular time from the first day of prescription. A diary on the trial subjects was kept from the start day of taking the clinical trial drug.
# During a visit in 4 weeks (visit 3), 12 weeks (visit 4) and 24 weeks (visit 5) later, subjects paid a visit on an empty stomach without taking the clinical trial drug, then received a scheduled test, then were newly prescribed the same drug, then took it from the very day, then received a test in their visit in 24 weeks (visit 5) later, and then stopped the administration.
# In four weeks (visit 3) after administering the clinical trial drug, endoscopy was not performed, but clinical laboratory tests (hematologic test, blood chemistry test, blood coagulation test, urine test, hepatitis test, etc.) and evaluation of symptoms were performed. In 12 weeks (visit 4) and 24 weeks (visit 5) later, it was checked whether erosion recurred or not through the upper gastrointestinal endoscopy, and the clinical laboratory test, evaluation of symptoms and the like were performed. Clinical trial subjects took the clinical trial drug for up to 24 weeks and then entered into a safety follow-up (f/u) period, in which the f/u was performed (by phone or visit) in two weeks after the last administration.
# (1) Endoscopic remission: No recurrence of erosion (LA grade A-D) observed through upper gastrointestinal endoscopy during a maintenance period (12 weeks)
# (1) Rate of subjects without main symptoms (heartburn and gastric acid reflux)
# Rate of subjects without main symptoms=(Subjects without main symptoms expressed/Number of clinical trial subjects whose symptoms were evaluated during a maintenance period after administration of the clinical trial drug)×100
# gastric pH = test: 24-hour gastric pH monitoring after repeated oral dosing in healthy male volunteers (Example 1); assay type: in vivo, human; settings: for HTR > pH4 (%) Mean: time for which pH of gastric fluid exceeds and maintains 4 based on 24 hours: healthy male volunteers
# Description: Tegoprazan and esomeprazole were orally administered for 7 days as shown in table 1 (an open-label, active controlled, parallel design and repeated dose).
# There occurred neither serious adverse reactions nor dropouts caused thereby while this clinical trial was in progress. With regard to a gastric pH, a time for which the gastric pH exceeds 4 was evaluated during an observation period for the gastric pH.
# After evaluating pharmacokinetic parameters, the time (%) for which a pH of gastric fluid exceeds and maintains 4 based on 24 hours is the same as shown in the following table 2.
Compound,"maintenance effect after four weeks of administration ([1]; 25 mg once a day, 4 weeks)","maintenance effect (endoscopic remission maintenance) after twelve weeks of administration ([1]; 25 mg once a day, 12 weeks)","inhibition of the recurrence of gastroesophageal reflux disease ([1]; 25 mg, conclusion from 12-week endoscopy)",subjects with erosion observed by upper gastrointestinal endoscopy ([1]; 12 weeks),symptom evaluation: symptoms of heartburn and gastric acid reflux while taking the drug [1],"HTR > pH4 (%) Mean: time for which pH of gastric fluid exceeds and maintains 4 based on 24 hours (gastric pH; Day 1, 25 mg once a day orally) [%]","HTR > pH4 (%) Mean: time for which pH of gastric fluid exceeds and maintains 4 based on 24 hours (gastric pH; Day 7, 25 mg once a day orally for seven days) [%]","average of time for which the gastric pH exceeds 4 (Time pH>4, %) (gastric pH; from day 1 after the administration, 25 mg, observed for 24 hours)"
"Cc1nc2cc(C(=O)N(C)C)cc(O[C@H]3CCOc4cc(F)cc(F)c43)c2[nH]1 [tegoprazan, (S)-4-(5,7-difluorochroman-4-yloxy)-N,N,2-trimethyl-1H-benzo[d]imidazole-6-carboxamide]",demonstrated a maintenance effect,A maintenance effect was observed,effectively inhibits the recurrence of gastroesophageal reflux disease,only one subject among the total 37 subjects,had not experienced symptoms of heartburn and gastric acid reflux,40.6,56.6,at least 40%
"Cc1c(OCC(F)(F)F)ccnc1C[S+]([O-])c1nc2ccccc2[nH]1 (stereo not shown) [lansoprazole, reference compound]",–,–,–,only one subject among the total 37 subjects,had not experienced symptoms of heartburn and gastric acid reflux,–,–,–
